Assay results from ChEMBL document CHEMBL4118087, “Inhibitors of CD73 May Provide a Treatment for Cancer and Autoimmune Diseases” (ACS Med Chem Lett, 2017).

Target: 5'-nucleotidase (Homo sapiens, UniProt P21589, T376A)
Assay: Inhibition of human flag-tagged CD73 Thr376Ala mutant (1 to 552 residues) assessed as reduction in conversion of AMP to adenosine incubated for 10 mins followed by AMP addition measured after 30 mins by RapidFire mass spectrometric analysis

Sequence of 5'-nucleotidase (P21589 27-549 T376A limits assumed): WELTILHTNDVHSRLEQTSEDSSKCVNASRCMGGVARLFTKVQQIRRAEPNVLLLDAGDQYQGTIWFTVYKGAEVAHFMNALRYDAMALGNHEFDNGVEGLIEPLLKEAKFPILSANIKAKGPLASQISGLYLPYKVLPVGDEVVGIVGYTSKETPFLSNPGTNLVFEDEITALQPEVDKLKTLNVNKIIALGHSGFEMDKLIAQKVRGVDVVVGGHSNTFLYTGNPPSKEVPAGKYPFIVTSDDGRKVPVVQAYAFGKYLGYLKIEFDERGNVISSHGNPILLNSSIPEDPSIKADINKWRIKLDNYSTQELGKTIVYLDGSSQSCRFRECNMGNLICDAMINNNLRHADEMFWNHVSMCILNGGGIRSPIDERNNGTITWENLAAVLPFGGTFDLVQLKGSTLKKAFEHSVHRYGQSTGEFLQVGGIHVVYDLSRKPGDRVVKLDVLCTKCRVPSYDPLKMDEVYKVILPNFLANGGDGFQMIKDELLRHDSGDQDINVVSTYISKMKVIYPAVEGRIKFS

SMILES	IC50
Cc1ccc(NC2=Nc3c(O)cc(Cl)cc3S(=O)(=O)N2)cc1	1000 nM
O=S1(=O)N=C(Nc2cc(F)c3[nH]ccc3c2)Nc2c(O)cc(Cl)c(Br)c21	63.1 nM
CN(C)C(=O)Cc1cccc(NC2=Nc3c(O)cc(Cl)cc3S(=O)(=O)N2)c1	3160 nM

More lines, now with the values ahead:

IC50	SMILES
100 nM	O=S1(=O)NC(Nc2cccc(O)c2)=Nc2c(O)cc(F)cc21
≤ 316 nM	O=S1(=O)NC(Nc2cccc3[nH]ccc23)=Nc2c(O)cc(Cl)cc21
15.8 nM	O=S1(=O)NC(Nc2cccc3[nH]ncc23)=Nc2c1cc(Cl)c(F)c2O
